Calls of active or inactive are those of the source. No cut-off for these calls is given here.
Key:
Mus musculus [1] = test: Protection against SEB-induced toxicity in C3H/HeJ mouse assessed as lethality at 1.2 mg/kg, in administered at 5 hrs after SEB challenge followed by 5 mg/kg, ip infusion after 24 to 96 hrs of SEB exposure; assay type: functional
[2] = Drug level in C3H/HeJ mouse blood at 0.03 mg/kg, in administered at 2 and 5 hrs followed by 0.08 mg/kg, ip infusion at 30, 48, 72 and 96 hrs measured at 97 hrs; assay type: ADME, organism-based; details: read-out: Drug uptake
PBMC [3] = test: cells; assay type: functional; details: Homo sapiens, 48 h
Mus musculus [4] = test: Protection against SEB-induced toxicity in C3H/HeJ mouse assessed as appearance of ruffled fur and lethargy at 0.7 mg/kg, in administered at 72 hrs after SEB challenge followed by 1.6 mg/kg, ip infusion after 30 to 96 hrs of SEB exposure; assay type: functional, organism-based
Mus musculus [5] = test: Protection against SEB-induced toxicity in C3H/HeJ mouse assessed as survival rate at 1.2 mg/kg, in administered at 5 hrs after SEB challenge followed by 5 mg/kg, ip infusion after 24 to 96 hrs of SEB exposure; assay type: functional
[6] = Drug level in C3H/HeJ mouse blood at 0.7 mg/kg, in administered at 2 and 5 hrs followed by 1.6 mg/kg, ip infusion at 30, 48, 72 and 96 hrs measured at 97 hrs; assay type: ADME, organism-based; details: read-out: Drug uptake
Mus musculus [7] = test: Antiinflammatory activity in C3H/HeJ mouse assessed as reduction in SEB-induced increase in serum IL-6 level at 0.7 mg/kg, in after 75 hrs; assay type: functional, organism-based; set-up: dose 0.7 mg/kg
Mus musculus [8] = test: Antiinflammatory activity in C3H/HeJ mouse assessed as reduction in SEB-induced increase in serum IL-6 level at 0.7 mg/kg, in after 51 hrs; assay type: functional, organism-based; set-up: dose 0.7 mg/kg
PBMC [9] = test: cells; assay type: functional; details: Homo sapiens, 48 h; remark: listed apart in the source
Mus musculus [10] = test: Antiinflammatory activity in C3H/HeJ mouse assessed as reduction in SEB-induced increase in serum IL-6 level at 0.7 mg/kg, in after 24 hrs; assay type: functional, organism-based; set-up: dose 0.7 mg/kg
PBMC [11] = test: Inhibition of SEB-induced proliferation of human PBMC at 0.69 ug/ml after 48 hrs by [3H]thymidine incorporation assay; assay type: functional
PBMC [12] = test: Inhibition of SEB-induced proliferation of human PBMC after 48 hrs by [3H]thymidine incorporation assay; assay type: functional, cell-based
Mus musculus [13] = test: Protection against SEB-induced toxicity in C3H/HeJ mouse assessed as survival rate at 1.2 mg/kg, in administered at 2 hrs after SEB challenge followed by 5 mg/kg, ip infusion after 24 to 96 hrs of SEB exposure; assay type: functional
Mus musculus [14] = test: Protection against SEB-induced toxicity in C3H/HeJ mouse assessed as survival rate at 0.7 mg/kg, in administered at 2 hrs after SEB challenge followed by 1.6 mg/kg, ip infusion after 24 to 96 hrs of SEB exposure; assay type: functional
Mus musculus [15] = test: Protection against SEB-induced toxicity in C3H/HeJ mouse assessed as attenuation of hypothermic response at 0.7 mg/kg, in administered at 5 hrs after SEB challenge; assay type: functional, organism-based; set-up: dose 0.7 mg/kg
Mus musculus [16] = test: Inhibition of SEB-induced weight loss in C3H/HeJ mouse assessed as weight gain at 0.7 mg/kg, in measured after 150 hrs of SEB challenge; assay type: functional
[17] = Drug level in C3H/HeJ mouse blood at 0.7 mg/kg, in after 1 hr; assay type: ADME, organism-based; set-up: dose 0.7 mg/kg; details: inhaled or intranasal, read-out: Drug uptake
PBMC [18] = test: Cytotoxicity against human PBMC at 10 ug/ml after 48 hrs by [3H]thymidine incorporation assay; assay type: cell-based
Mus musculus [19] = test: Protection against SEB-induced toxicity in C3H/HeJ mouse assessed as survival rate at 0.7 mg/kg, in administered at 5 hrs after SEB challenge followed by 1.6 mg/kg, ip infusion after 24 to 96 hrs of SEB exposure; assay type: functional
PBMC [20] = test: cells; assay type: functional; details: Homo sapiens, 48 h; remark: listed apart in the source
Mus musculus [21] = test: Protection against SEB-induced toxicity in C3H/HeJ mouse assessed as attenuation of hypothermic response at 0.7 mg/kg, in administered at 42 hrs after SEB challenge followed by 1.6 mg/kg, ip infusion after 30 to 96 hrs of SEB exposure; assay type: functional
PBMC [22] = test: cells; assay type: functional; details: Homo sapiens, 48 h; remark: listed apart in the source
Mus musculus [23] = test: Protection against SEB-induced toxicity in C3H/HeJ mouse assessed as attenuation of hypothermic response at 0.7 mg/kg, in administered at 24 hrs after SEB challenge followed by 1.6 mg/kg, ip infusion after 30 to 96 hrs of SEB exposure; assay type: functional, organism-based
Mus musculus [24] = test: Protection against SEB-induced toxicity in C3H/HeJ mouse assessed as survival rate at 0.7 mg/kg, in administered at 4 hrs after SEB challenge followed by 1.6 mg/kg, ip infusion after 24 to 96 hrs of SEB exposure; assay type: functional
Mus musculus [25] = test: Antiinflammatory activity in C3H/HeJ mouse assessed as reduction in SEB-induced increase in serum IL-6 level at 0.7 mg/kg, in after 5 hrs; assay type: functional, organism-based; set-up: dose 0.7 mg/kg
Mus musculus [26] = test: Protection against SEB-induced toxicity in C3H/HeJ mouse assessed as survival rate at 0.7 mg/kg, in administered at 3 hrs after SEB challenge followed by 1.6 mg/kg, ip infusion after 24 to 96 hrs of SEB exposure; assay type: functional
PBMC [27] = test: Inhibition of SEB-induced proliferation of human PBMC at 6.9 ug/ml after 48 hrs by [3H]thymidine incorporation assay; assay type: functional
Mus musculus [28] = test: Inhibition of SEB-induced weight loss in C3H/HeJ mouse assessed as weight gain at 0.7 mg/kg, in administered at 24 hrs after SEB challenge followed by 1.6 mg/kg, ip infusion after 30 to 96 hrs of SEB exposure; assay type: functional, organism-based
PBMC [29] = test: cells; assay type: functional; details: Homo sapiens, 48 h; remark: listed apart in the source
PBMC [30] = test: Inhibition of SEB-induced proliferation of human PBMC at 6.9 ug/ml after 3 hrs by [3H]thymidine incorporation assay; assay type: functional
PBMC [31] = test: cells; assay type: functional; details: Homo sapiens, 48 h; remark: listed apart in the source
PBMC [32] = test: cells; assay type: functional; details: Homo sapiens, 48 h; remark: listed apart in the source

Compound `C[C@@H]1C[C@H]2[C@@H]3CCC4=CC(=O)C=C[C@]4(C)[C@@]3(F)[C@@H](O)C[C@]2(C)[C@@]1(O)C(=O)CO` [DEXAMETHASONE] has an Activity (Mus musculus [1]) of 90%.

In the case of `CO[C@H]1C[C@@H]2CC[C@@H](C)[C@@](O)(O2)C(=O)C(=O)N2CCCC[C@H]2C(=O)O[C@H]([C@H](C)C[C@@H]2CC[C@@H](O)[C@H](OC)C2)CC(=O)[C@H](C)/C=C(\C)[C@@H](O)[C@@H](OC)C(=O)[C@H](C)C[C@H](C)/C=C/C=C/C=C/1C` [SIROLIMUS], the concentration at 97 h [2] is reported as 38 ng/mL, the inhibition at 6.9 µg/mL (PBMC [3]) is reported as 100% and the Activity (Mus musculus [4]) is reported as “Active”. The Activity (Mus musculus [5]) was 10%, the concentration at 97 h [6] was 622 ng/mL and the inhibition (Mus musculus [7]) was “Active”. For the same compound, the inhibition (Mus musculus [8]) was “Active”, the inhibition at 6.9 µg/mL (PBMC [9]) was 97% and the inhibition (Mus musculus [10]) was “Active”. The inhibition at 0.69 µg/mL (PBMC [11]) was 56%, the inhibition (PBMC [12]) was “Dose-dependent effect” and the Activity (Mus musculus [13]) was 100%. For the same compound, the Activity (Mus musculus [14]) was 100%, the Activity (Mus musculus [15]) was “Active” and the inhibition in vivo at 0.7 mg/kg (Mus musculus [16]) was 8%. The concentration at 1 h [17] was 492 ng/mL, the Activity (PBMC [18]) was “Non-toxic” and the Activity (Mus musculus [19]) was 100%. The inhibition at 6.9 µg/mL (PBMC [20]) was 67%, the Activity (Mus musculus [21]) was 20% and the inhibition at 0.0069 µg/mL (PBMC [22]) was 34%. For the same compound, the Activity (Mus musculus [23]) was “Active”, the Activity (Mus musculus [24]) was 100% and the inhibition (Mus musculus [25]) was “inactive”. For the same compound, the Activity (Mus musculus [26]) was 100%, the inhibition at 6.9 µg/mL (PBMC [27]) was 94% and the inhibition (Mus musculus [28]) was “Active”. For the same compound, the inhibition at 0.0069 µg/mL (PBMC [29]) was 36%, the inhibition at 6.9 µg/mL (PBMC [30]) was 40% and the inhibition at 6.9 µg/mL (PBMC [31]) was 77%. It also gave an inhibition at 6.9 µg/mL (PBMC [32]) of 100%.

— ChEMBL document CHEMBL1240404, “Rapamycin protects mice from staphylococcal enterotoxin B-induced toxic shock and blocks cytokine release in vitro and in vivo” (Antimicrob Agents Chemother, 2010)
